Measurements taken from patent US7741520B2, “Sulfonanilide analogs as selective aromatase modulators (SAMs)” (The Ohio State University Research Foundation, priority 2006, dated 2010).

Legend:
[1] = test system: PGE2 production in MDA-MB-231 cells; experiment: Enzyme immunoassay of PGE2 in MDA-MB-231 cells (COX-2 inhibitory activity); assay type: cell-based, human; details: 25 μM, 24 h (FIG. 4)
Method: Enzyme Immunoassay of PGE2 in MDA-MB-231 Cells. MDA-MB-231 cells were obtained from ATCC (Rockville, Md.). Cell cultures were maintained in phenol red-free custom media (MEM, Earle's salts, 1.5× amino acids, 2× nonessential amino acids, L-glutamine, 1.5× vitamins, Gibco BRL) supplemented with 10% fetal bovine serum (FBS), 2 mM L-glutamine and 20 mg/L gentamycin. To study PGE2 synthesis in cell culture media, experiments were performed in […] Petri dishes. An aliquot of MDA-MB-231 cells (15×10^4 cells) were added to each dish and then incubated overnight to allow the cells to adhere to the dish. After that, cells were serum starved in defined media for 24 h. This step was followed by replacement of media with fresh media containing either vehicle (DMSO) or the indicated concentration of agents. After 24 h incubation at 37° C. the media were collected and the amount of PGE2 was determined by ELISA (Cayman Chemical) according to the protocol provided by the manufacturer. PGE2 concentration was normalized to total protein. Total proteins were extracted from adhered cells by 30 min treatment with 0.5 M NaOH at room temperature and shaking. Protein concentrations in these extracts were determined using a protein assay method (Bio-Rad Laboratories, Inc., Hercules, Calif.).

[2] = test system: aromatase activity in SK-BR-3 breast cancer cells; experiment: Aromatase tritiated water-release assay in SK-BR-3 cell lines (first compound set); assay type: cell-based, human; details: SK-BR-3 cells, 24 h treatment; five concentrations, each in triplicate; read-out: IC50 (μM), suppression of aromatase activity in SK-BR-3 breast cancer cells
Method: Aromatase Tritiated Water-Release Assay in SK-BR-3 Cell Lines. SK-BR-3 cells were obtained from ATCC (Rockville, Md.). Cell cultures were maintained in phenol red-free custom media (MEM, Earle's salts, 1.5× amino acids, 2× nonessential amino acids, L-glutamine, 1.5× vitamins, Gibco BRL) supplemented with 10% fetal bovine serum (FBS), 2 mM L-glutamine, and 20 mg/L gentamycin. Measurement of aromatase enzyme activity was based on the tritium water release assay. 24 Cells in 100 mm Petri dish were treated with 0.1% DMSO (control), and inhibitors at the indicated concentrations. After 24 h, the media was changed and the cells were incubated with 100 nM [1â-3H]-androst-4-ene-3,17-dione ([…]) for 3 h. Subsequently, the reaction mixture was removed, and proteins were precipitated using 10% trichloroacetic acid at 42° C. for 20 min. After a brief centrifugation, the media was extracted three times with an equal amount of chloroform to extract unused substrate and further dextran-treated charcoal. After centrifugation, a 250-μL aliquot containing the product was counted in 5 mL of liquid scintillation mixture. Results were corrected for blanks and for the cell contents of culture flasks, and results were expressed as picomoles of 3H2O formed per hour incubation time per million live cells (pmol/h/10^6 cells). To determine the amount of cells in each flask, the cells were trypsinized and analyzed using the diphenylamine DNA assay adapted to a 96-well plate. (Natarajan N.; Shambaugh, G. E., 3rd; Elseth K. M.; Haines G. K.; Radosevich J. A. Adaptation of the diphenylamine (DPA) assay to a 96-well plate tissue culture format and comparison with the MTT assay. Biotechniques 1994, 17, 166-171; incorporated herein by reference). IC50 sigmoidal dose-response data were analyzed with Microsoft Excel and the Graphpad Prism (Version 3.0) program.

[3] = test system: aromatase activity in SK-BR-3 breast cancer cells; experiment: Tritiated water-release assay in SK-BR-3 cells (additional compounds); assay type: cell-based, human
Method: Cell Culture. AR and SK-BR-3 cells were obtained from ATCC (Rockville, Md.). SK-BR-3 cells were maintained in phenol red-free custom media (MEM, Earle's salts, 1.5× amino acids, 2× non-essential amino acids, L-glutamine, 1.5× vitamins, Gibco BRL) supplemented with 10% fetal bovine serum (FBS), 2 mM L-glutamine and 20 mg/L gentamycin. […] Fetal bovine serum was heat inactivated for 30 min in a 56° C. water bath before use. Cell cultures were grown at 37° C., in a humidified atmosphere of 5% CO2 in a Hereaus CO2 incubator. For all experiments, cells were plated in 6 well plates and grown to subconfluency. Before treatment, the media was changed to a defined one containing DMEM/F12 media (Sigma) with 1.0 mg/mL human albumin (OSU Hospital Pharmacy), 5.0 mg/L human transferin and 5.0 mg/L bovine insulin.
(§1) Tritiated water-release assay in JAR and SK-BR-3 cell lines. Measurement of aromatase enzyme activity was based on the tritium water release assay. Cells in six well plates were treated with 0.1% DMSO (control), and inhibitors at the indicated concentrations. After 24 hours, the cells were incubated 3 hours (SK-BR-3 cells) or 1 hour (JAR cells) with fresh media along with 100 nM [1β-^3H]-androst-4-ene-3,17-dione (1 μCi). Subsequently, the reaction mixture was removed, and proteins were precipitated using 10% trichloroacetic acid at 42° C. for 20 min. After a brief centrifugation, the media was extracted three times with an equal amount of chloroform to remove remaining substrate and further treated with dextran-treated charcoal. After centrifugation, a 250-μl aliquot containing the product was counted in 5 ml of liquid scintillation mixture. Results were corrected for blanks and for the cell contents of culture flasks, and results were expressed as picomoles of ^3H2O formed per hour incubation time per million live cells (pmol/h/10^6 cells). To determine the amount of cells in each flask, the cells were lysed and analyzed using the diphenylamine DNA assay adapted to a 96-well plate. IC50 sigmoidal dose-response data were analyzed with Microsoft Excel and the Graphpad Prism (Version 3.0) program.
Diphenylamine DNA Assay To determine the amount of viable cells in each flask, the cells were lysed with 0.5N NaOH aqueous solution and analyzed using the diphenylamine DNA assay adapted to a 96-well plate. DNA standards (0-30 μg) were prepared using double-stranded DNA reconstituted in PBS and added in triplicates directly to the wells. A uniform cell suspension was prepared from the 6 well plate in 300 μl 0.5N NaOH aqueous solution, and 60 μl of the unknown samples were added in triplicates to separate wells. […] This solution (60 μl) was added to each well along with 100 μl of a 4% diphenylamine solution in glacial acetic acid. The plates were incubated at 37° C. for 24 hours. After centrifugation, 100 μl supernatant of each well was transferred to a new 96 well plate, and the OD595 was measured using a microplater reader. The DNA concentration was determined by extrapolation to the standard curve and the amount of cells/well was calculated using the equation: 1 cell≈7 pg DNA.

[4] = target: T1, aromatase activity in JAR choriocarcinoma placental cells (Homo sapiens, UniProt P11511); experiment: Tritiated water-release assay in JAR cells; assay type: cell-based
T1 construct: JAR choriocarcinoma placental cells (which produce aromatase expression from promoter I.1 mediated by protein kinase C); host or cells: JAR
T1 sequence (P11511 1-503): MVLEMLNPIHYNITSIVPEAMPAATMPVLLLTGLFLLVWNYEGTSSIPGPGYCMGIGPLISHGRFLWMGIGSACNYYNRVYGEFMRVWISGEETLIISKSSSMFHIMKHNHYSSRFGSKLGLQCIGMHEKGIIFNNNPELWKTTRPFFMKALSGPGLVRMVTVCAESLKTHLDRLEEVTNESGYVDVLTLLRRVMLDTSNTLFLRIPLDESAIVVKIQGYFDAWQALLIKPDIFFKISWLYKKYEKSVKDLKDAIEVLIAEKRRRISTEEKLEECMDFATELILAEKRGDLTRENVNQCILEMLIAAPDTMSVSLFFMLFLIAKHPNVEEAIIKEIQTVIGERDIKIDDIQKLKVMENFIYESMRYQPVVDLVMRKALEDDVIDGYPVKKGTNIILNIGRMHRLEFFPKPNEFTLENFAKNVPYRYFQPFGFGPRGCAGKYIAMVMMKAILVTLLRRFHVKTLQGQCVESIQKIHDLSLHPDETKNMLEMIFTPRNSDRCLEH
Method: Cell Culture. AR and SK-BR-3 cells were obtained from ATCC (Rockville, Md.). SK-BR-3 cells were maintained in phenol red-free custom media (MEM, Earle's salts, 1.5× amino acids, 2× non-essential amino acids, L-glutamine, 1.5× vitamins, Gibco BRL) supplemented with 10% fetal bovine serum (FBS), 2 mM L-glutamine and 20 mg/L gentamycin. JAR cells were maintained in RPMI 1640 medium with 2 mM L-glutamine adjusted to contain 1.5 g/L sodium bicarbonate, 4.5 g/L glucose, 10 mM HEPES, and 1.0 mM sodium pyruvate, 90%; FBS, 10%. Fetal bovine serum was heat inactivated for 30 min in a 56° C. water bath before use. Cell cultures were grown at 37° C., in a humidified atmosphere of 5% CO2 in a Hereaus CO2 incubator. For all experiments, cells were plated in 6 well plates and grown to subconfluency. Before treatment, the media was changed to a defined one containing DMEM/F12 media (Sigma) with 1.0 mg/mL human albumin (OSU Hospital Pharmacy), 5.0 mg/L human transferin and 5.0 mg/L bovine insulin.
as §1
Diphenylamine DNA Assay To determine the amount of viable cells in each flask, the cells were lysed with 0.5N NaOH aqueous solution and analyzed using the diphenylamine DNA assay adapted to a 96-well plate. DNA standards (0-30 μg) were prepared using double-stranded DNA reconstituted in PBS and added in triplicates directly to the wells. A uniform cell suspension was prepared from the 6 well plate in 300 μl 0.5N NaOH aqueous solution, and 60 μl of the unknown samples were added in triplicates to separate wells. A solution of 0.16% acetaldehyde in water was prepared and mixed at a 1:5 ratio with perchloric acid (20% vol/vol). This solution (60 μl) was added to each well along with 100 μl of a 4% diphenylamine solution in glacial acetic acid. The plates were incubated at 37° C. for 24 hours. After centrifugation, 100 μl supernatant of each well was transferred to a new 96 well plate, and the OD595 was measured using a microplater reader. The DNA concentration was determined by extrapolation to the standard curve and the amount of cells/well was calculated using the equation: 1 cell≈7 pg DNA.

SMILES	IC50 [2] [µM]	melting point [°C]	IC50 ([3]; dose-response (FIG. 13), read-out: IC50 (μM), suppression of aromatase activity in SK-BR-3 breast cancer cells) [µM]	inhibition at 15 µM ([4]; 24 h, 15 μM (FIG. 11), read-out: decrease of aromatase activity in JAR cells) [%]	PGE2 production (COX-2 inhibitory activity) [1]	decrease of aromatase activity in SK-BR-3 cells (in words) ([3]; 2.5 μM)	aromatase suppression activity in JAR cells (in words) ([4]; 15 μM)
CN(c1ccc([N+](=O)[O-])cc1OC1CCCC1)S(C)(=O)=O [Compound 21, N-Methyl-N-(2-cyclopentyloxy-4-nitrophenyl)methanesulfonamide]	0.44	102 to 104			did not show any inhibitory activity		
CS(=O)(=O)Nc1ccc([N+](=O)[O-])cc1OC1CCCC1 [Compound 12, N-(2-Cyclopentyloxy-4-nitrophenyl)methanesulfonamide]	0.87	139 to 140			significantly decrease in PGE2 production		
CC1CCCCC1Oc1cc([N+](=O)[O-])ccc1N(C)S(C)(=O)=O (stereo not drawn) [Compound 20, N-Methyl-N-(2-methylcyclohexyloxy-4-nitrophenyl)methanesulfonamide]	0.96				did not show any inhibitory activity		
CS(=O)(=O)Nc1ccc([N+](=O)[O-])cc1OCc1cccc2ccccc12 [Compound 38b, N-[2-(α-naphthylmethoxy) 4-nitrophenyl]methanesulfonamide]		193 to 195		< 50		inhibited aromatase activity in both JAR cells and SK-BR-3 cells	inhibited aromatase activity in both JAR cells and SK-BR-3 cells

More lines, main results first:

IC50 [2] [µM]	melting point [°C]	IC50 ([3]; dose-response (FIG. 13), read-out: IC50 (μM), suppression of aromatase activity in SK-BR-3 breast cancer cells) [µM]	inhibition at 15 µM ([4]; 24 h, 15 μM (FIG. 11), read-out: decrease of aromatase activity in JAR cells) [%]	SMILES	PGE2 production (COX-2 inhibitory activity) [1]	decrease of aromatase activity in SK-BR-3 cells (in words) ([3]; 2.5 μM)	aromatase suppression activity in JAR cells (in words) ([4]; 15 μM)
		27		CS(=O)(=O)Nc1ccc([N+](=O)[O-])cc1Oc1ccccc1 [Nimesulide, N-(2-phenoxy-4-nitrophenyl)-methanesulfonamide, reference compound]			
1.21				CC1CCCCC1Oc1cc([N+](=O)[O-])ccc1NS(C)(=O)=O (stereo not drawn) [Compound 11, N-(2-Methylcyclohexyloxy-4-nitrophenyl)methanesulfonamide]	did not show any COX-2 inhibitory activity		
